Test results taken from article PMC13201543 (Communications Biology, 2026).
“Also recorded” adds a separate entry of the source.

What was measured:
A*33 = assay: Surface plasmon resonance, immobilized A*33; assay type: binding, human; details: for SPR binding to A*33 (in words): Biacore T200, recombinant A*33
C*07 = assay: Surface plasmon resonance, immobilized C*07; assay type: binding, human; details: Biacore T200, recombinant C*07
A*24 = assay: Surface plasmon resonance, immobilized A*24; assay type: binding, human
[1] = molecular target: recombinant C-terminal His-tag HLA-A*33 (human); assay: SPR
[2] = molecular target: recombinant His-tag HLA-C*07 (human); assay: SPR
[3] = molecular target: recombinant C-terminal His-tag HLA-A*24 (human); assay: SPR

GNNQIDSTLKDLVEELSK [MSP3]
SPR binding to A*33 (in words) (A*33): relatively weaker binding | SPR binding response, A*33 compared with C*07 (A*33; MSP3 100 μM (Fig. 8C.iii)): Distinct decrease in SPR binding response | binding to C*07 (in words) (C*07): strong binding affinity

SMFWPCLLR [SAG2C]
SPR binding to A*33 (in words) (A*33): higher binding affinity; also recorded: strong binding | SPR binding to A*24 (in words) (A*24; Biacore T200, immobilized A*24, different concentrations of peptide): relatively weaker binding | SPR binding response, A*24 compared with A*33 (A*24; SAG2C 100 μM (Fig. 6C.iii)): Distinct decrease in SPR binding response

GNNQIDSTLKDLVEELSK [Plasmodium antigenic peptide MSP3]
SPR response at 200 uM [1]: 12 RU | SPR response at 200 uM [2]: 60 RU

SMFWPCLLR [Toxoplasma antigenic peptide SAG2C, wild type]
SPR response at 200 uM [3]: 15 RU | SPR response at 200 uM [1]: 150 RU
